8 molecules from ChEMBL document CHEMBL1201862, “PubChem BioAssay data set” (2004) can be followed below.

Assay [1] has as its target T1, High affinity choline transporter 1 (Homo sapiens, UniProt Q9GZV3).
T1 sequence (Q9GZV3 whole entry): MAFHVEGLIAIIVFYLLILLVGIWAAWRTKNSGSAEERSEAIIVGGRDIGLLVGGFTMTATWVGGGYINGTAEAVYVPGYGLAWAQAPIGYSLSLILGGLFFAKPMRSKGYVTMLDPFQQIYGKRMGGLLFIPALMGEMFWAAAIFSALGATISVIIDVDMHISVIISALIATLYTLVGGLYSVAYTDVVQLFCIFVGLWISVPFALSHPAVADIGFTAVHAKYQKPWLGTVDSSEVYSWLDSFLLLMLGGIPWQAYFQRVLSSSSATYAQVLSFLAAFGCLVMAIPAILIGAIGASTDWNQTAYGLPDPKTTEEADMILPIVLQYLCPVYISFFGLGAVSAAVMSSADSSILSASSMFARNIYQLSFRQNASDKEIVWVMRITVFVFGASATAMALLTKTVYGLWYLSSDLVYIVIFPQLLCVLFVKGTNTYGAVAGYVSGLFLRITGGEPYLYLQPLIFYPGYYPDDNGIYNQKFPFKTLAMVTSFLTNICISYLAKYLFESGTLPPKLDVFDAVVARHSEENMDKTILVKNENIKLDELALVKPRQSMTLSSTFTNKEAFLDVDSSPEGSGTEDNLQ
Put plainly: CHT inhibitors, dose response, cell-based, 5-point CRC, membrane potential dye (AID 504840). The assay is classed as functional.

Assay [2] addresses T1, High affinity choline transporter 1. Nature of the assay: CHT inhibitors, dose response, cell-based, 10-point CRC, membrane potential dye (AID 588401).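 Note: membrane potential dye fluorescence of choline-evoked depolarization via CHT.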 The assay is classed as functional.
In another assay the target is T2, DNA topoisomerase (Yersinia pestis, UniProt A0A2S9PM60).
T2 sequence (A0A2S9PM60 whole entry): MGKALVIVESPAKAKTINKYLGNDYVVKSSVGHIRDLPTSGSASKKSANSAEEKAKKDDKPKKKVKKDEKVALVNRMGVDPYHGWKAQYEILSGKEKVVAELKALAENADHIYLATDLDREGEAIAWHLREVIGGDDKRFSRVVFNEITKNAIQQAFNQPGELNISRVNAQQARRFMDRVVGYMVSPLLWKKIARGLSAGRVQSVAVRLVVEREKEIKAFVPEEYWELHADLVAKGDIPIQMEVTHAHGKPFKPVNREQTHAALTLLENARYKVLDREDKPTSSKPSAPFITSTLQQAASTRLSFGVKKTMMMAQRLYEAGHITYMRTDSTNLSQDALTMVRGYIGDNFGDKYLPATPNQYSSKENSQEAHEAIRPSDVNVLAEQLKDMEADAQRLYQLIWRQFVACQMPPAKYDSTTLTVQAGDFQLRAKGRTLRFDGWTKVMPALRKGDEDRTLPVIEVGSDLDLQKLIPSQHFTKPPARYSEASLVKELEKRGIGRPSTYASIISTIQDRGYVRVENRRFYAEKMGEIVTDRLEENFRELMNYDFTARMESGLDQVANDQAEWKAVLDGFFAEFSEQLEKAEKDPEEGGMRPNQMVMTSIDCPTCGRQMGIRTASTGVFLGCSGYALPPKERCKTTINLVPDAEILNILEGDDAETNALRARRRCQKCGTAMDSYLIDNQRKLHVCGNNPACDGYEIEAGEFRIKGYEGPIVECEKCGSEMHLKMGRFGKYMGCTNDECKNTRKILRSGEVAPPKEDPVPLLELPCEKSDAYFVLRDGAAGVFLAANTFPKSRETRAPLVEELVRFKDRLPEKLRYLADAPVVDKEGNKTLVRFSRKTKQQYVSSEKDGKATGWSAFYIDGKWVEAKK
Put plainly: Y. pestis Topo-I inhibitors, cleavage product readout, dose response, biochemical, cherry-pick (AID 588525).

Assay [3] in a line: Luminescence Cell-Based Dose Retest to Confirm Inhibitors of Cancer Stem Cells. [Related pubchem assays (depositor defined):AID2717, AID2721]. The assay is classed as functional. As to conditions: Homo sapiens.
The target of assay [4] is T3, Heat shock factor protein 1 (Mus musculus, UniProt P38532).
T3 sequence (P38532 whole entry): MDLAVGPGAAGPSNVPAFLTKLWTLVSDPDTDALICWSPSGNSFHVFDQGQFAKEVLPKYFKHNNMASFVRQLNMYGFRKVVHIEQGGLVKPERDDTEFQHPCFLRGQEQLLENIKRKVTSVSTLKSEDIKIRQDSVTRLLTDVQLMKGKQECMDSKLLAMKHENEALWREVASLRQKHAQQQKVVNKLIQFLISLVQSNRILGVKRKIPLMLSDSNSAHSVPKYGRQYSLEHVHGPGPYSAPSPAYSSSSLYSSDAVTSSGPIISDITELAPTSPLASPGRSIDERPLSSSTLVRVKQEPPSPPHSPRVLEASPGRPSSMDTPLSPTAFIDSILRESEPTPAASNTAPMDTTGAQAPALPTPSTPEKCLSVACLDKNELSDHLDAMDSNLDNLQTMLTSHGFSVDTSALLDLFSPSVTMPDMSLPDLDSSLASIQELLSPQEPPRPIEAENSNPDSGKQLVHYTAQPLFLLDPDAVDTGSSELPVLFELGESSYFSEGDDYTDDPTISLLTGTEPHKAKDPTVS
Nature of the assay: HSF1 potentiators in luciferase reporter cells, confirmation, cell-based, NIH3T3, luminescence, dose retest (AID 435004).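 Note: stress induced by proteasome inhibitor MG132 added 30 min after compound; luciferase reporter driven by HSF1 response element in NIH3T3 cells; actives raise luminescence as potentiators of the MG132 stress response.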 It counts as functional. (In general: A reporter such as luciferase makes a cellular process visible.)

Assay [5] has as its target T4, Replicative DNA helicase DnaB (Mycobacterium tuberculosis, UniProt P9WMR3).
T4 sequence (P9WMR3 whole entry): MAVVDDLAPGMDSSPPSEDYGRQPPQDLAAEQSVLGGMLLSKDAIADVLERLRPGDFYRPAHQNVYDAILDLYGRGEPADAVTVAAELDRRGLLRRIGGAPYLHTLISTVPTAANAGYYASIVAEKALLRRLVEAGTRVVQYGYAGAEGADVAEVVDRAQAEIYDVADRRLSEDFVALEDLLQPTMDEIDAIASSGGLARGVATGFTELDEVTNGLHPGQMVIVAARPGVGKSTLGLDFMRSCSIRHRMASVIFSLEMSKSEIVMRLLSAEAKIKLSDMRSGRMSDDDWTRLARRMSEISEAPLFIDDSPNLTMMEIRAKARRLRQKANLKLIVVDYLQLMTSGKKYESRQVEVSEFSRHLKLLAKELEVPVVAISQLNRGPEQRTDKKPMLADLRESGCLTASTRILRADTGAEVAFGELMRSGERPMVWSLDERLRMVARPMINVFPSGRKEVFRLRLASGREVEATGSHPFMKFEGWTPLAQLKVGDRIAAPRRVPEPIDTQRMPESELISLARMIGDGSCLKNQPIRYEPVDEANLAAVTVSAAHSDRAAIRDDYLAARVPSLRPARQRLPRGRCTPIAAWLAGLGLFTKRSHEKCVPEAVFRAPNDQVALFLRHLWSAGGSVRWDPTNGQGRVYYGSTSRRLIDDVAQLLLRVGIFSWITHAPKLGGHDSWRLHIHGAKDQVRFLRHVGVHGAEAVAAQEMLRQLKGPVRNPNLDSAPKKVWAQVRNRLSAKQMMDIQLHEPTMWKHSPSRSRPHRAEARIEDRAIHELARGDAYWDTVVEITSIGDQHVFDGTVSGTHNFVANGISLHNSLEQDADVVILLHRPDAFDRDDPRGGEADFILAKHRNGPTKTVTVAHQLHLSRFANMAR
Put plainly: DnaB intein splicing inhibitors, dose response, biochemical, cell-free fluorescence (AID 449749). It counts as functional.

Another assay deals with T5, Protein RecA (Mycobacterium tuberculosis, UniProt P9WHJ3).
T5 sequence (P9WHJ3 whole entry): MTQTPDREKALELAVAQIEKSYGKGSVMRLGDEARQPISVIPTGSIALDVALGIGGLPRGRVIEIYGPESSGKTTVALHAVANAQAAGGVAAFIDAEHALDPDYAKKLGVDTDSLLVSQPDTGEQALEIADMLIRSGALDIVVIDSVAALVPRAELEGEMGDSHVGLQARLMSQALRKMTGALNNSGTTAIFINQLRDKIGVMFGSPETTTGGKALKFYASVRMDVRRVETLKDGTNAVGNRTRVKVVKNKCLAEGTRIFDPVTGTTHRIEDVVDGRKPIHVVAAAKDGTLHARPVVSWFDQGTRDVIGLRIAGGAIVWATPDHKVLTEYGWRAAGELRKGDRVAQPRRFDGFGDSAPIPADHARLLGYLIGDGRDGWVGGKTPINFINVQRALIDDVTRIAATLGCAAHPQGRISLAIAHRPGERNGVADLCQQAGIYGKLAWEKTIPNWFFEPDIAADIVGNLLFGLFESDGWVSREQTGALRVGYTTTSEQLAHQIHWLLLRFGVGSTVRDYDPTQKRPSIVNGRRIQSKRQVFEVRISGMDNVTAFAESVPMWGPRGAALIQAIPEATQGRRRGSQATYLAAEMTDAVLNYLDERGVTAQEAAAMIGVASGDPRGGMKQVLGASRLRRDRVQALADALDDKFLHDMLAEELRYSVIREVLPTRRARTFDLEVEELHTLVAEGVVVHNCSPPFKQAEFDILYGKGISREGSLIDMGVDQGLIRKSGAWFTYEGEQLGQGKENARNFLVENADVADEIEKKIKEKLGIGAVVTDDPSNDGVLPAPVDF
Put plainly: Fluorescence Cell-Free Homogeneous Dose Retest to Identify Inhibitors of RecA-Intein Splicing Activity. [Related pubchem assays (depositor defined):AID2097, AID2223, AID489010, AID492950]. It counts as functional.

In a further assay the target is Melanocortin receptor 4 (Homo sapiens, UniProt P32245). Nature of the assay: MC4R antagonist potency on cAMP, dose response, cell-based, TR-FRET, biased antagonists (AID 602298).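 Note: antagonist potency against agonist-stimulated cAMP production.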 It counts as functional. For orientation: In TR-FRET formats the signal depends on donor and acceptor labels being close together.
Sequence of Melanocortin receptor 4 (P32245 whole entry): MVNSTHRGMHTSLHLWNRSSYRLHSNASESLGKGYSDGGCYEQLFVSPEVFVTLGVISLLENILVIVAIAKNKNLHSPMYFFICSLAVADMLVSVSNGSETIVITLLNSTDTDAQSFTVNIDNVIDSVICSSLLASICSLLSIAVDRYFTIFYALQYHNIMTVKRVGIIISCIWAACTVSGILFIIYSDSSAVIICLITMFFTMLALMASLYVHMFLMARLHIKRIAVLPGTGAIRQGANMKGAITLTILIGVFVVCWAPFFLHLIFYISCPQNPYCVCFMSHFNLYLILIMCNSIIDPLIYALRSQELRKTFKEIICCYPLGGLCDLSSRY
Assay [6] in a line: nonselective inhibitors of cellular cAMP signaling, dose response, counter-screen for MC4R biased antagonist project, cell-based, TR-FRET cAMP detection (AID 602305).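 Note: U2OS cells stimulated with forskolin near its EC80 as the cAMP inducer; potency is for inhibition of forskolin-stimulated cAMP signaling.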 The assay is classed as functional. (A counterscreen serves to expose hits that act by an unwanted route or on another target.)
The next assay has as its target Beta-galactosidase (Escherichia coli, UniProt Q8VNN2). Put plainly: PubChem AID 485352. The assay is classed as functional.
Assay [7] deals with T6, Type-1 angiotensin II receptor (Homo sapiens, UniProt P30556).
T6 sequence (P30556 whole entry): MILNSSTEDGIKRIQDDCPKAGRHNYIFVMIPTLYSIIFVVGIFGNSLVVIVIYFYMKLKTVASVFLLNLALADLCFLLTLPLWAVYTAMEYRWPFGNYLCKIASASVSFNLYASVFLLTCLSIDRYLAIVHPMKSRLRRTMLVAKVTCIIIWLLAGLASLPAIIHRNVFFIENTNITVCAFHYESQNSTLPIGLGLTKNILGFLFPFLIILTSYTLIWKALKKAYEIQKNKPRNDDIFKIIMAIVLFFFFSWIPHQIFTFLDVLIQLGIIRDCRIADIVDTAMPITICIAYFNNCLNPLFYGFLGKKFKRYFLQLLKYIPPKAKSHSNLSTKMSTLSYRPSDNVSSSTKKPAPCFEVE
Put plainly: AT1 receptor antagonists, dose response, selectivity assay for APJ receptor antagonist project, cell-based, uHTS hits (AID 463214).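 Note: antagonist potency against angiotensin II stimulated AT1 response.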 It counts as functional.

A short description of assay [8]: cytotoxicity in HPDE-C7 cells, cell-based, fluorescence, HTS (AID 430). The assay is classed as functional. As to conditions: Homo sapiens.
Assay [9] in a line: cytotoxicity in KRAS-transformed pancreatic duct cells, primary screen, cell-based, fluorescence, HTS (AID 431).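 Note: cell line used: HPDE-C7K.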 The assay is classed as functional. The settings on record: Homo sapiens.

Activity calls are given as the source filed them.

What is called IC50 is the concentration needed to halve the response being measured. The AC50 is the concentration at which the activity in the assay is half-maximal. As a reminder, the EC50 is the concentration at which the effect is half-maximal.

Sequence of Beta-galactosidase (Q8VNN2 whole entry): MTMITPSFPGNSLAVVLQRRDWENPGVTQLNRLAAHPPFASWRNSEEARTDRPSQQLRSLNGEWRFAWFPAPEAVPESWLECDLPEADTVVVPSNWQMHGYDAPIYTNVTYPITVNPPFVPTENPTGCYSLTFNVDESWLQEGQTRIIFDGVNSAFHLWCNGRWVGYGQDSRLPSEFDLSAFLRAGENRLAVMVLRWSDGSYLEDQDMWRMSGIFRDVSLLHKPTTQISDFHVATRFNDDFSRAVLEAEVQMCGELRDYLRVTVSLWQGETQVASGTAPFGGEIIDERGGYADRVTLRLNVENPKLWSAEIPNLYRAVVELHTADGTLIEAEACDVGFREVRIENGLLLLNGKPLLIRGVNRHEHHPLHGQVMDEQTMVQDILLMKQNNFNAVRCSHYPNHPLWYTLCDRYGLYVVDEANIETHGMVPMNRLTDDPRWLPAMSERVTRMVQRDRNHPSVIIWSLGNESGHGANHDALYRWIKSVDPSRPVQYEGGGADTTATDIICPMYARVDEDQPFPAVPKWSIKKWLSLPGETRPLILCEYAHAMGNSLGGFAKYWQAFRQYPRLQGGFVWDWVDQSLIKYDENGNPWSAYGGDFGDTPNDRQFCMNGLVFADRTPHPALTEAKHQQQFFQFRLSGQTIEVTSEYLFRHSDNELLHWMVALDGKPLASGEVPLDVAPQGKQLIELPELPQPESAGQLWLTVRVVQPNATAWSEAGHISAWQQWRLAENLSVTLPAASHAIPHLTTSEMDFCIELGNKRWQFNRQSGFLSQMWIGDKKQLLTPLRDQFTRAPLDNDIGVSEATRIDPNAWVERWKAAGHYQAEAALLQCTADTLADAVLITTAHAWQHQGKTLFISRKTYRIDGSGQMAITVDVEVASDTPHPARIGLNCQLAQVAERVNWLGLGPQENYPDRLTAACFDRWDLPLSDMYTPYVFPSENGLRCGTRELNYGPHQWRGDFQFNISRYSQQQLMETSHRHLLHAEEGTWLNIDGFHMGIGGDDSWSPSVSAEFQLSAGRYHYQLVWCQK

For the molecule `CC(C)(C)NCC(O)c1cc(O)cc(O)c1` (configuration not stated), the IC50 in [1] was 0.0841 µM (active); in assay [2], 0.0142 µM (active).

With `O=[N+]([O-])c1ccc(CSc2nnc3ccccn23)cc1`, the IC50 was 4.29 µM (active) in assay [1] and 0.8 µM (active) in assay [2].

With `COc1cc2c(cc1OC)C1=NC(=O)CN1C(SCc1ccc(C)cc1)=N2`, at DNA topoisomerase, the AC50 is 13.8 µM (active).

As to `O=C(C[S+]([O-])c1ccc(C(F)(F)F)cc1[N+](=O)[O-])Oc1ccccc1` (configuration not stated), the figures for the AC50 in [3] and in assay [5] were 3.71 µM (active) and 10.4 µM (active), respectively. In addition, the EC50 in assay [4] was 22.7 µM (active); on Protein RecA it was 4.59 µM (active). Also, the IC50 in [1] was 12.3 µM (active); on Melanocortin receptor 4 it was 13.5 µM (inactive); in assay [6], > 64.6 µM (inactive).

In the case of `CCCCCn1c(SCCC(C)C)nc2c1c(=O)[nH]c(=O)n2C`, on DNA topoisomerase, the AC50 is > 38 µM (inactive).

Turning to `Cc1ccccc1NCC(=O)c1ccc(Br)cc1`, the EC50 at Beta-galactosidase was > 40 µM (inactive). For the same molecule, the IC50 in assay [7] was 8.62 µM (active). The AC50 on DNA topoisomerase is 1.96 µM (active).

Regarding `Cc1ccc(-n2nc3ccc(NC(=S)NC(=O)/C=C/c4ccco4)cc3n2)cc1`, the IC50 at Melanocortin receptor 4 is 55.6 µM (inactive); in assay [6], > 64.6 µM (inactive).

In the case of `CCN(CC)S(=O)(=O)c1cc(C(=O)Nc2nncs2)c(Cl)cc1Cl`, the figures for the EC50 in assay [8] and in assay [9] were 13.5 µM (active) and > 20 µM (not active), respectively. In addition, the IC50 in assay [1] was 7.64 µM (active); in [2], 6.21 µM (active).
